Measurements published in patent US9650395B2, “Antibacterial compounds and methods for use” (PTC Therapeutics, Inc., priority 2011, dated 2017).
≈ marks a conversion by molar mass, not a printed value. Read-outs that look alike come from different tables or passages of the source.

Legend:
[1] = test system: super sensitive Gram-negative Escherichia coli (E. coli) BAS849; assay: Antibacterial activity, microbroth dilution MIC, E. coli BAS849; assay type: cell-based; settings: Escherichia coli, read-out: MIC, BAS849
[2] = test system: Gram-positive Staphylococcus aureus (S. aureus) 29213; assay: Antibacterial activity, microbroth dilution MIC, S. aureus 29213; assay type: cell-based; settings: Staphylococcus aureus; S. aureus 29213, microbroth dilution; read-out: MIC, 29213
[3] = test system: Haemophilus influenzae (H. influenzae) 49247; assay: Antibacterial activity, MIC, H. influenzae 49247; assay type: cell-based; settings: Haemophilus influenzae; H. influenzae 49247; read-out: MIC 49247
Description: The antibacterial activity from a microbroth dilution method may be presented as the minimum inhibitory concentration (MIC in […]). The MIC value is the lowest concentration of a drug which prevents macroscopically visible bacterial growth under test conditions.
Antibacterial activity of test compounds against the Gram-negative bacteria Haemophilus influenzae (H. influenzae) 49247, Moraxella catarrhalis (M. catarrhalis) 25238 and Neisseria meningitidis (N. meningitidis) 13090 is shown in Table 6.

[4] = test system: Moraxella catarrhalis (M. catarrhalis) 25238; assay: Antibacterial activity, MIC, M. catarrhalis 25238; assay type: cell-based; settings: Moraxella catarrhalis, M. catarrhalis 25238; read-out: MIC 25238
[5] = test system: Neisseria meningitidis (N. meningitidis) 13090; assay: Antibacterial activity, MIC, N. meningitidis 13090; assay type: cell-based; settings: Neisseria meningitidis; N. meningitidis 13090; read-out: MIC 13090
[6] = test system: control Gram-negative E. coli 25922 strain; assay: Antibacterial activity, microbroth dilution MIC, E. coli 25922; assay type: cell-based, Escherichia coli; settings: Escherichia coli; E. coli 25922, microbroth dilution; read-out: MIC, 25922
[7] = E. coli BAS849, microbroth dilution

SMILES	MIC [1, 7] [µg/mL]	MIC [2] [µg/mL]	MIC [3] [µg/mL]	MIC [4] [µg/mL]	MIC [5] [µg/mL]	MIC [6] [µg/mL]	MIC [1] [µg/mL]
CN(C)c1ccc(-c2[nH]c(=O)c(C(=O)O)cc2Cc2ccccc2)cc1 [Cpd 1, 5-benzyl-6-[4-(dimethylamino)phenyl]-2-oxo-1,2-dihydropyridine-3-carboxylic acid]	12.5 to 150 (≈ 35.9 to 431 µM)	12.5 to 150 (≈ 35.9 to 431 µM)	< 1	3.5 to 12.5 (≈ 10 to 35.9 µM)	3.5 to 12.5 (≈ 10 to 35.9 µM)		
CN(C)c1ccc(-c2[nH]c(=O)c(C(=O)O)c(O)c2Cc2ccccc2)cc1 [Cpd 2, 5-benzyl-6-[4-(dimethylamino)phenyl]-4-hydroxy-2-oxo-1,2-dihydropyridine-3-carboxylic acid]	12.5 to 150 (≈ 34.3 to 412 µM)	3.5 to 12.5 (≈ 9.6 to 34.3 µM)	< 1	< 1	< 1	12.5 to 150 (≈ 34.3 to 412 µM)	
CN(C)c1ccc(-c2[nH]c(=O)c(C(=O)O)cc2C2CCCCC2)cc1 [Cpd 6, 5-cyclohexyl-6-[4-(dimethylamino)phenyl]-2-oxo-1,2-dihydropyridine-3-carboxylic acid]	3.5 to 12.5 (≈ 10.3 to 36.7 µM)	12.5 to 150 (≈ 36.7 to 441 µM)	< 1	3.5 to 12.5 (≈ 10.3 to 36.7 µM)	< 1	12.5 to 150 (≈ 36.7 to 441 µM)	
CN(C)c1ccc(-c2[nH]c(=O)c(C(=O)O)c(O)c2C2CCCCC2)cc1 [Cpd 7, 5-cyclohexyl-6-[4-(dimethylamino)phenyl]-4-hydroxy-2-oxo-1,2-dihydropyridine-3-carboxylic acid]	3.5 to 12.5 (≈ 9.82 to 35.1 µM)	1 to 3.5 (≈ 2.81 to 9.82 µM)	< 1	< 1	1 to 3.5 (≈ 2.81 to 9.82 µM)	12.5 to 150 (≈ 35.1 to 421 µM)	
CCCc1c(-c2ccc(N(C)C)cc2)[nH]c(=O)c(C(=O)O)c1O [Cpd 9, 6-[4-(dimethylamino)phenyl]-4-hydroxy-2-oxo-5-propyl-1,2-dihydropyridine-3-carboxylic acid]	< 1	1 to 3.5 (≈ 3.16 to 11.1 µM)	< 1	< 1	< 1	12.5 to 150 (≈ 39.5 to 474 µM)	
CN(C)c1ccc(-c2[nH]c(=O)c(C(=O)O)cc2C(=O)O)cc1 [Cpd 11, 6-[4-(dimethylamino)phenyl]-2-oxo-1,2-dihydropyridine-3,5-dicarboxylic acid]	12.5 to 150 (≈ 41.4 to 496 µM)	12.5 to 150 (≈ 41.4 to 496 µM)	< 1	12.5 to 150 (≈ 41.4 to 496 µM)	12.5 to 150 (≈ 41.4 to 496 µM)	12.5 to 150 (≈ 41.4 to 496 µM)	
CN(C)c1ccc(-c2[nH]c(=O)c(C(=O)O)c(O)c2C2CC2)cc1 [Cpd 13, 5-cyclopropyl-6-[4-(dimethylamino)phenyl]-4-hydroxy-2-oxo-1,2-dihydropyridine-3-carboxylic acid]	1 to 3.5 (≈ 3.18 to 11.1 µM)	3.5 to 12.5 (≈ 11.1 to 39.8 µM)	< 1	< 1	< 1	12.5 to 150 (≈ 39.8 to 477 µM)	
CN(C)c1ccc(-c2[nH]c(=O)c(C(=O)O)cc2C#N)cc1 [Cpd 14, 5-cyano-6-[4-(dimethylamino)phenyl]-2-oxo-1,2-dihydropyridine-3-carboxylic acid]	12.5 to 150 (≈ 44.1 to 529 µM)	12.5 to 150 (≈ 44.1 to 529 µM)	< 1	12.5 to 150 (≈ 44.1 to 529 µM)	12.5 to 150 (≈ 44.1 to 529 µM)	12.5 to 150 (≈ 44.1 to 529 µM)	
CN(C)c1ccc(-c2[nH]c(=O)c(C(=O)O)cc2CN)cc1.Cl [Cpd 22, 5-(aminomethyl)-6-[4-(dimethylamino)phenyl]-2-oxo-1,2-dihydropyridine-3-carboxylic acid hydrochloride]	12.5 to 150	12.5 to 150	12.5 to 150	12.5 to 150	3.5 to 12.5	12.5 to 150	
CCc1c(-c2ccc(NCCCI)cc2)[nH]c(=O)c(C(=O)O)c1O [Cpd 82, 5-ethyl-4-hydroxy-6-{4-[(3-iodopropyl)amino]phenyl}-2-oxo-1,2-dihydropyridine-3-carboxylic acid]	3.5 to 12.5 (≈ 7.91 to 28.3 µM)	1 to 3.5 (≈ 2.26 to 7.91 µM)	< 1	< 1	< 1	12.5 to 150 (≈ 28.3 to 339 µM)	
Cc1cc(C(=O)O)c(=O)[nH]c1-c1ccc(N2CCOCC2)c(F)c1 [Cpd 89, 6-[3-fluoro-4-(morpholin-4-yl)phenyl]-5-methyl-2-oxo-1,2-dihydropyridine-3-carboxylic acid]	12.5 to 150 (≈ 37.6 to 451 µM)	12.5 to 150 (≈ 37.6 to 451 µM)	< 1	12.5 to 150 (≈ 37.6 to 451 µM)	12.5 to 150 (≈ 37.6 to 451 µM)	12.5 to 150 (≈ 37.6 to 451 µM)	
CCc1cc(C(=O)O)c(=O)[nH]c1-c1ccc(N2CCN(C(=O)OC(C)(C)C)CC2)c(F)c1 [Cpd 91, 6-{4-[4-(tert-butoxycarbonyl)piperazin-1-yl]-3-fluorophenyl}-5-ethyl-2-oxo-1,2-dihydropyridine-3-carboxylic acid]	12.5 to 150 (≈ 28.1 to 337 µM)	12.5 to 150 (≈ 28.1 to 337 µM)	1 to 3.5 (≈ 2.24 to 7.86 µM)	< 1	3.5 to 12.5 (≈ 7.86 to 28.1 µM)	12.5 to 150 (≈ 28.1 to 337 µM)	
CCc1c(-c2ccc(N(CC)CC)cc2)[nH]c(=O)c(C(=O)O)c1O [Cpd 98, 6-[4-(diethylamino)phenyl]-5-ethyl-4-hydroxy-2-oxo-1,2-dihydropyridine-3-carboxylic acid]	< 1	3.5 to 12.5 (≈ 10.6 to 37.8 µM)	1 to 3.5 (≈ 3.03 to 10.6 µM)	3.5 to 12.5 (≈ 10.6 to 37.8 µM)	< 1	12.5 to 150 (≈ 37.8 to 454 µM)	
CCc1cc(C(=O)O)c(=O)[nH]c1-c1ccc(N2CCN(C(=O)OC(C)(C)C)CC2)cc1 [Cpd 102, 6-{4-[4-(tert-butoxycarbonyl)piperazin-1-yl]phenyl}-5-ethyl-2-oxo-1,2-dihydropyridine-3-carboxylic acid]	1 to 3.5 (≈ 2.34 to 8.19 µM)	12.5 to 150 (≈ 29.2 to 351 µM)	1 to 3.5 (≈ 2.34 to 8.19 µM)	< 1	1 to 3.5 (≈ 2.34 to 8.19 µM)	12.5 to 150 (≈ 29.2 to 351 µM)	
CCc1cc(C(=O)O)c(=O)[nH]c1-c1ccc(N2CCNCC2)cc1.O=C(O)C(F)(F)F [Cpd 103, 5-ethyl-2-oxo-6-[4-(piperazin-1-yl)phenyl]-1,2-dihydropyridine-3-carboxylic acid trifluoroacetate]		12.5 to 150	< 1	12.5 to 150	3.5 to 12.5	12.5 to 150	3.5 to 12.5
CCc1cc(C(=O)O)c(=O)[nH]c1-c1ccc(-n2ccnc2)cc1 [Cpd 106, 5-ethyl-6-[4-(1H-imidazol-1-yl)phenyl]-2-oxo-1,2-dihydropyridine-3-carboxylic acid]	12.5 to 150 (≈ 40.4 to 485 µM)	12.5 to 150 (≈ 40.4 to 485 µM)	< 1	12.5 to 150 (≈ 40.4 to 485 µM)	3.5 to 12.5 (≈ 11.3 to 40.4 µM)	12.5 to 150 (≈ 40.4 to 485 µM)	
CCc1c(-c2ccc(N3CCCCC3)cc2)[nH]c(=O)c(C(=O)O)c1O [Cpd 109, 5-ethyl-4-hydroxy-2-oxo-6-[4-(piperidin-1-yl)phenyl]-1,2-dihydropyridine-3-carboxylic acid]	< 1	3.5 to 12.5 (≈ 10.2 to 36.5 µM)	< 1	< 1	< 1	12.5 to 150 (≈ 36.5 to 438 µM)	
CCc1cc(C(=O)O)c(=O)[nH]c1-c1ccc(N2CCCC2=O)cc1 [Cpd 114, 5-ethyl-2-oxo-6-[4-(2-oxopyrrolidin-1-yl)phenyl]-1,2-dihydropyridine-3-carboxylic acid]	1 to 3.5 (≈ 3.06 to 10.7 µM)	12.5 to 150 (≈ 38.3 to 460 µM)	< 1	< 1	< 1	12.5 to 150 (≈ 38.3 to 460 µM)	
CCc1cc(C(=O)O)c(=O)[nH]c1-c1ccc(N2CC3CC2CN3)cc1.O=C(O)C(F)(F)F (centres unmarked) [Cpd 138, 6-[4-(2,5-diazabicyclo[2.2.1]hept-2-yl)phenyl]-5-ethyl-2-oxo-1,2-dihydropyridine-3-carboxylic acid trifluoroacetate]		12.5 to 150	12.5 to 150	< 1	12.5 to 150	12.5 to 150	12.5 to 150
CCc1cc(C(=O)O)c(=O)[nH]c1-c1ccc(N2CCC[C@H]2C(F)(F)F)cc1 [Cpd 142, 5-ethyl-2-oxo-6-{4-[(2S)-2-(trifluoromethyl)pyrrolidin-1-yl]phenyl}-1,2-dihydropyridine-3-carboxylic acid]	1 to 3.5 (≈ 2.63 to 9.2 µM)	12.5 to 150 (≈ 32.9 to 394 µM)	3.5 to 12.5 (≈ 9.2 to 32.9 µM)	1 to 3.5 (≈ 2.63 to 9.2 µM)	< 1	12.5 to 150 (≈ 32.9 to 394 µM)	
CCc1cc(C(=O)O)c(=O)[nH]c1-c1ccc(N2CCCC2c2ccccc2)cc1 (centres unmarked) [Cpd 145, 5-ethyl-2-oxo-6-[4-(2-phenylpyrrolidin-1-yl)phenyl]-1,2-dihydropyridine-3-carboxylic acid]	< 1	1 to 3.5 (≈ 2.57 to 9.01 µM)	< 1	< 1	< 1	12.5 to 150 (≈ 32.2 to 386 µM)	
CCc1cc(C(=O)O)c(=O)[nH]c1-c1ccc(N2CCC[C@H]2COC)cc1 [Cpd 146, 5-ethyl-6-{4-[(2S)-2-(methoxymethyl)pyrrolidin-1-yl]phenyl}-2-oxo-1,2-dihydropyridine-3-carboxylic acid]	< 1	12.5 to 150 (≈ 35.1 to 421 µM)	1 to 3.5 (≈ 2.81 to 9.82 µM)	< 1	< 1	12.5 to 150 (≈ 35.1 to 421 µM)	
CCc1cc(C(=O)O)c(=O)[nH]c1-c1ccc(N2[C@H](COC)CC[C@H]2COC)cc1 [Cpd 148, 6-{4-[(2S,5S)-2,5-bis(methoxymethyl)pyrrolidin-1-yl]phenyl}-5-ethyl-2-oxo-1,2-dihydropyridine-3-carboxylic acid]	3.5 to 12.5 (≈ 8.74 to 31.2 µM)	12.5 to 150 (≈ 31.2 to 375 µM)	12.5 to 150 (≈ 31.2 to 375 µM)	12.5 to 150 (≈ 31.2 to 375 µM)	3.5 to 12.5 (≈ 8.74 to 31.2 µM)	12.5 to 150 (≈ 31.2 to 375 µM)	
CCc1cc(C(=O)O)c(=O)[nH]c1-c1ccc(N2CCCC2c2nccs2)cc1 (centres unmarked) [Cpd 156, 5-ethyl-2-oxo-6-{4-[2-(1,3-thiazol-2-yl)pyrrolidin-1-yl]phenyl}-1,2-dihydropyridine-3-carboxylic acid]	< 1	12.5 to 150 (≈ 31.6 to 379 µM)	< 1	< 1	< 1	12.5 to 150 (≈ 31.6 to 379 µM)	
